Source: patent publication US6660870B1, “2-acylaminobenzimidazole derivatives for treating glaucoma” (Alcon, Inc., priority 2000, dated 2003)

Assays:
brain 5-HT2 receptors = brain 5-HT2 receptors (Rattus norvegicus, UniProt P14842); experiment: 5-HT2 Receptor Binding Assay ([125I]DOI competition); settings: competition for [125I]DOI binding, post mortem rat or human cerebral cortex homogenates
Description: 5-HT2 Receptor Binding Assay
Aliquots of post mortem rat or human cerebral cortex homogenates (400 μl) dispersed in 50 mM TrisHCl buffer (pH 7.4) are incubated with [^125I]DOI (80 pM final) in the absence or presence of methiothepin (10 μM final) to define total and non-specific binding, respectively, in a total volume of 0.5 ml. The assay mixture is incubated for 1 hour at 23° C. in polypropylene tubes and the assays terminated by rapid vacuum filtration over Whatman GF/B glass fiber filters previously soaked in 0.3% polyethyleneimine using ice-cold buffer. Test compounds (at different concentrations) are substituted for methiothepin. Filter-bound radioactivity is determined by scintillation spectrometry on a beta counter. The data are analyzed using a non-linear. iterative curve-fitting computer program [Trends Pharmacol. Sci., 16, 413 (1995)] to determine the compound affinity parameter. The concentration of the compound needed to inhibit the [^125I]DOI binding by 50% of the maximum is termed the IC50 […].

5-HT2 receptor = target: T1, 5-HT2 receptor (Rattus norvegicus, UniProt P14842); experiment: 5-HT2 Functional Assay: Phosphoinositide (PI) Turnover Assay; assay type: cell-based; settings: for EC50: [3H]inositol phosphate production in A7r5 rat vascular smooth muscle cells
T1 construct: A7r5 rat vascular smooth muscle cells; endogenous in cells; host or cells: A7r5 rat vascular smooth muscle cells
T1 sequence (P14842 whole entry): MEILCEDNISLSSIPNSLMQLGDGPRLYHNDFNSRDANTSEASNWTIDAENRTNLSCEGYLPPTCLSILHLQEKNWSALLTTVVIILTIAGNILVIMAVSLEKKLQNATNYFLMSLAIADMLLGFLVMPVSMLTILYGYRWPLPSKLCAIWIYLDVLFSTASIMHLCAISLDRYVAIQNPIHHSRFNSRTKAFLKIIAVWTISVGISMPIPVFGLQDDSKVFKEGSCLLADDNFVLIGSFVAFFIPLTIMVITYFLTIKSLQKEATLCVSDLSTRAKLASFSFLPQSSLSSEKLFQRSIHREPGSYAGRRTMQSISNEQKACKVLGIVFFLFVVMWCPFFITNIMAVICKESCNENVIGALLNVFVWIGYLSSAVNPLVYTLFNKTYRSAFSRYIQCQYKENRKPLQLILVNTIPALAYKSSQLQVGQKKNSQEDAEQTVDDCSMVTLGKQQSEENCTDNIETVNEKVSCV
Description: 5-HT2 Functional Assay: Phosphoinositide (PI) Turnover Assay
The relative agonist activity of serotonergic compounds at the 5-HT2 receptor can be determined in vitro using the ability of the compounds to stimulate the production of [^3H]inositol phosphates in [^3H]myo-inositol-labeled A7r5 rat vascular smooth muscle cells by their ability to activate the enzyme phospholipase C. These cells are grown in culture plates, maintained in a humidified atmosphere of 5% CO2 and 95% air and fed semi-weekly with Dulbecco's modified Eagle medium (DMEM) containing 4.5 g/l glucose and supplemented with 2 mM glutamine, 10 μg/ml gentamicin, and 10% fetal bovine serum. For the purpose of conducting the phosphoinositide (PI) turnover experiments, the A7r5 cells are cultured in 24-well plates as previously [J. Pharmacol. Expt. Ther., 286, 411 (1998)]. Confluent cells are exposed for 24-30 hrs to 1.5 μCi [^3H]-myo-inositol (18.3 Ci/mmol) in 0.5 ml of serum-free medium. Cells are then rinsed once with DMEM/F-12 containing 10 mM LiCl prior to incubation with the test agent (or solvent as the control) in 1.0 ml of the same medium for 1 hr at 37° C., after which the medium is aspirated and 1 ml of cold 0.1 M formic acid added to stop the reaction. The chromatographic separation of [^3H]-inositol phosphates ([^3H]-IPs) on an AG-1-X8 column is performed as previously described [J. Pharmacol. Expt. […] The eluate (4 ml) is collected, mixed with 15 ml scintillation fluid, and the total [^3H]-IPs determined by scintillation counting on a beta-counter. Concentration-response data are analyzed by the sigmoidal fit function of the Origin Scientific Graphics software (Microcal Software, Northampton, Mass.) to determine agonist potency (EC50 value) and efficacy (Emax). Serotonin (5-HT) is used as a positive control (standard) agonist compound and the efficacy of test compounds is compared to that of 5-HT (set at 100%).

Sequence of brain 5-HT2 receptors (P14842 whole entry): as above

SMILES | IC50 (brain 5-HT2 receptors) | EC50 (5-HT2 receptor) | Emax (5-HT2 receptor; A7R5, read-out: Efficacy (Emax, %))
COc1cc(C[C@@H](C)N)c(OC)cc1I [(R)-DOI] | 0.46 nM | 277 nM | 
Cc1ccc(C(=O)Nc2nc3ccccc3n2CCN(C)C)cc1 [Example 1, 1-(N,N-Dimethylaminoethyl)-2-(4-methylbenzamido)benzimidazole] |  | 404 nM | 35%
